From patent US9610234B2, “Combinations of alkylamidothiazoles and preservatives” (Beiersdorf AG, priority 2013, dated 2017)

Molecular target: T1, human tyrosinase (Homo sapiens, UniProt P14679)
T1 sequence (P14679 19-529): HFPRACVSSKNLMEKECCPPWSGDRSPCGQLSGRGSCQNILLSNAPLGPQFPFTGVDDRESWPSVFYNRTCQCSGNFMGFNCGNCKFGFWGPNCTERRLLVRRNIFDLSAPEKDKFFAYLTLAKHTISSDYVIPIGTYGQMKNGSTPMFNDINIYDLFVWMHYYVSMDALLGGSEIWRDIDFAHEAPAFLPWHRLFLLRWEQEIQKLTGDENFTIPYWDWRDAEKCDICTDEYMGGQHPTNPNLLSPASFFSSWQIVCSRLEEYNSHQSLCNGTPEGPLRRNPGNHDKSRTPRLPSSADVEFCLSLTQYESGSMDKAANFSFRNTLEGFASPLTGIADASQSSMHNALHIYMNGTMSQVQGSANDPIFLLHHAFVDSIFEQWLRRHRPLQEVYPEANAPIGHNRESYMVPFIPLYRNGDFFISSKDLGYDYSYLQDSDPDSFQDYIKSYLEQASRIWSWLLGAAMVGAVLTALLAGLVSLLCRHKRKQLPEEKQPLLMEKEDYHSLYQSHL
Test: Enzyme test: conversion of L-DOPA to L-dopaquinone by human tyrosinase (MBTH, absorption at 490 nm)
Assay type: biochemical
Details: tyrosinase activity
Description: Method Description of the Effectiveness Investigations:
In this literature-known method (Winder, A. J. and Harris, H., New assays for the tyrosine hydroxylase and dopa oxidase activities of tyrosinase. Eur. J. Biochem. (1991), 198, 317-26), the reaction product L-dopaquinone is reacted with MBTH (3-methyl-2-benzothiazoline hydrazone) to give a pink-colored substance, the increase of which is measured over time by absorption at 490 nm. […] It can be concluded from this that the substances according to the invention are extremely effective pigmentation-inhibiting substances.

SMILES | Inhibition (% of the control) (concentration 0.4 μg/mL) | Inhibition (% of the control) (concentration 200 μg/mL)
CC(C)C(=O)Nc1nc(-c2ccc(O)cc2O)cs1 [N-(4-(2,4-dihydroxyphenyl)thiazol-2-yl)isobutyramide] | 38.2 % of the control | –
C/C=C/C=C/C(=O)[O-].[K+] [Potassium sorbate] | – | 42.0 % of the control
O=C([O-])c1ccccc1.[Na+] [Sodium benzoate] | – | 43.6 % of the control
